Measured values published in US11963520B2, “Transgenic mouse expressing human cereblon” (Celgene Corporation, priority 2016, dated 2024).

Key:
Type in all cases: cell-based, mouse
GSPT1 = assay: Ex vivo compound treatment of splenocytes, western blot of GSPT1 degradation (GSPT1 versus GAPDH); details: 4 hr ex vivo
Protocol: (§1) For example, degradation of CRBN substrate (e.g., Aiolos, Ikaros, or GSPT1) was evaluated by ex vivo compound treatment of splenocytes isolated from the human CRBN transgenic mice. Spleens from wild type (WT), heterozygous (HET), and homozygous human CRBN knock-in mice (HOM) were collected and dissociated in 5 mL PBS using gentleMACS™ Dissociator (Miltenyi Biotec, San Diego, CA). Spleen homogenates were filtered using 70 μm pre-separation filters (#130-095-823, Miltenyi Biotec) into 15-mL conical tubes and centrifuged at 1200 rpm for 5 min. After decanting, splenocytes were re-suspended in 1 mL of ACK Lysing Buffer (Gibco #A10492-01, Thermo Fisher Scientific, Waltham, MA) for 2 min. to lyse red blood cells. Ten mL of cold PBS was added to each conical tube to stop lysis, and splenocytes were again centrifuged at 1200 rpm for 5 min. After decanting, splenocytes were re-suspended in 1 mL PBS, filtered again, and pooled for each mouse phenotype to count and determine viability using Vi-Cell™ XR cell counter (Beckman Coulter, Indianapolis, IN). After counting and viability check, tubes with pooled splenocytes were centrifuged at 1200 rpm for 5 min., decanted, and resuspended in warm RPMI 1640 media supplemented with 10% FBS at a concentration of 5.5×10^6 splenocytes/mL (20-30 mL depending on number of splenocytes).
(§2) 15×10^6 WT, HET, or HOM splenocytes were plated in wells of separate 6-well plates. Compounds diluted in DMSO (final concentration 0.2%)/RPMI 1640 media were dispensed into wells at concentrations ranging from 10 μM to 1 nM. 0.2% DMSO was also dispensed in one well of each plate as a negative control. Splenocytes were treated with compounds from 4 to 24 hrs in incubators at 37° C. Compound-treated splenocytes were then collected in 15 mL conical tubes, centrifuged at 1500 rpm for 6 mins, media aspirated off, and washed once with 5 mL PBS. After washing, splenocytes were again centrifuged, PBS was aspirated off, and splenocyte pellets were flash frozen on dry ice.
Splenocyte pellets were lysed using cold 1× cell lysis buffer (#9803, Cell Signaling Technology, Danvers, MA), supplemented with cOmplete ULTRA protease inhibitor tablet (#05892920001, Roche Diagnostics Corporation, Indianapolis, IN) and phosphatase inhibitors (Pierce #78442, Thermo Fisher Scientific, Waltham, MA). Protein concentration of lysates was determined using BCA Protein Assay Kit (Pierce #A10492-01, Thermo Fisher Scientific, Waltham, MA) and western blots were run to evaluate substrate degradation resulting from ex vivo compound treatment. Twenty microgram of each splenoctye lysate was loaded onto 4-12% Criterion XT Bis Tris gels (Bio-Rad #3450124, Bio-Rad Laboratories, Hercules, CA) and run at 130 V for 1.5 hr and then transferred onto nitrocellulose membranes using Trans-Blot Turbo Transfer System (Bio-Rad Laboratories). After 1 hr of blocking in Odyssey® Blocking buffer (#927-40100, LI-COR Biotechnology, Lincoln, NE), membranes were incubated with primary antibodies for Aiolos (polyclonal goat, #sc-18683, Santa Cruz Biotechnology, Dallas, TX), Ikaros (monoclonal rabbit, #14859, Cell Signaling Technology), GSPT-1 (polyclonal rabbit, #ab49878, Abcam PLC, Cambridge, United Kingdom), GAPDH (monoclonal mouse, #AM4300, Thermo Fisher Scientific) overnight at 4° C. After washing in PBST, membranes were probed with a fluorescent secondary antibody, Alexa Fluor 680® goat anti-rabbit IgG (Invitrogen #A-21076, Thermo Fisher Scientific) or IRDye® 800CW goat anti-mouse IgG (#926-32210, LI-COR Biotechnology), for 1 hr at room temperature. Following incubation with secondary antibodies, membranes were again washed in PBST. Membranes were scanned using Odyssey® CLx Imaging System (LI-COR Biotechnology) and quantified using Image Studio™ software. […]

Ikaros = assay: Ex vivo compound treatment of splenocytes, western blot of Ikaros degradation (Ikaros versus GAPDH)
Protocol: as §1, §2
(§3) Splenocyte pellets were lysed using cold 1× cell lysis buffer (#9803, Cell Signaling Technology, Danvers, MA), supplemented with cOmplete ULTRA protease inhibitor tablet (#05892920001, Roche Diagnostics Corporation, Indianapolis, IN) and phosphatase inhibitors (Pierce #78442, Thermo Fisher Scientific, Waltham, MA). Protein concentration of lysates was determined using BCA Protein Assay Kit (Pierce #A10492-01, Thermo Fisher Scientific, Waltham, MA) and western blots were run to evaluate substrate degradation resulting from ex vivo compound treatment. Twenty microgram of each splenoctye lysate was loaded onto 4-12% Criterion XT Bis Tris gels (Bio-Rad #3450124, Bio-Rad Laboratories, Hercules, CA) and run at 130 V for 1.5 hr and then transferred onto nitrocellulose membranes using Trans-Blot Turbo Transfer System (Bio-Rad Laboratories). After 1 hr of blocking in Odyssey® Blocking buffer (#927-40100, LI-COR Biotechnology, Lincoln, NE), membranes were incubated with primary antibodies for Aiolos (polyclonal goat, #sc-18683, Santa Cruz Biotechnology, Dallas, TX), Ikaros (monoclonal rabbit, #14859, Cell Signaling Technology), GSPT-1 (polyclonal rabbit, #ab49878, Abcam PLC, Cambridge, United Kingdom), GAPDH (monoclonal mouse, #AM4300, Thermo Fisher Scientific) overnight at 4° C. After washing in PBST, membranes were probed with a fluorescent secondary antibody, Alexa Fluor 680® goat anti-rabbit IgG (Invitrogen #A-21076, Thermo Fisher Scientific) or IRDye® 800CW goat anti-mouse IgG (#926-32210, LI-COR Biotechnology), for 1 hr at room temperature. Following incubation with secondary antibodies, membranes were again washed in PBST. Membranes were scanned using Odyssey® CLx Imaging System (LI-COR Biotechnology) and quantified using Image Studio™ software.
(§4) A second ex vivo experiment using splenocytes from WT, HET, and HOM mice was conducted to study the dose dependency of Aiolos or Ikaros degradation in response to a range of Compound B concentrations. […]

Aiolos = assay: Ex vivo compound treatment of splenocytes, western blot of Aiolos degradation (Aiolos versus GAPDH)
Protocol: as §1, §2, §3, §4

[1] = HET and HOM splenocytes, 1 μM or 10 μM, 24 hrs ex vivo
[2] = HET splenocytes, 0.001 μM, 6 hr ex vivo
[3] = HET splenocytes, 0.01 μM, 6 hr ex vivo
[4] = HET splenocytes, 0.1 μM, 6 hr ex vivo
[5] = HET splenocytes, 1 μM, 6 hr ex vivo
[6] = HET splenocytes, 1 μM, 24 hr ex vivo
[7] = HOM splenocytes, 0.001 μM, 6 hr ex vivo
[8] = HOM splenocytes, 0.01 μM, 6 hr ex vivo
[9] = HOM splenocytes, 0.1 μM, 6 hr ex vivo
[10] = HOM splenocytes, 1 μM, 6 hr ex vivo
[11] = HOM splenocytes, 1 μM, 24 hr ex vivo
[12] = WT splenocytes, 1 μM or 10 μM, 24 hrs ex vivo
[13] = WT splenocytes, 1 μM, 24 hr ex vivo
[14] = WT splenocytes, 10 μM, 24 hr ex vivo
[15] = WT splenocytes, any concentration (1, 0.1, 0.01, 0.001 μM), 6 hr ex vivo

Structure (SMILES): O=C1CCC(N2Cc3cc(CNC(=O)C(F)(F)c4ccc(F)cc4)ccc3C2=O)C(=O)N1 (stereo not drawn) [Compound E, 2-(4-flurophenyl)-N-((2-(2,6-dioxopiperidin-3-yl)-1-oxoisoindolin-5-yl)methyl)-2,2-difluoroacetamide]
- degradation of GSPT1 (GSPT1; HOM splenocytes, 100 nM): 70%
- degradation of GSPT1 (GSPT1; HOM splenocytes, 10 μM): 74%
- degradation of GSPT1 (in words) (GSPT1; HOM splenocytes): significant degradation
- degradation of GSPT1 (GSPT1; WT splenocytes, 100 nM): 0%
- degradation of GSPT1 (GSPT1; WT splenocytes, 10 μM): 6%

Structure (SMILES): O=C1CC[C@H](N2Cc3c(OCc4ccc(CN5CCOCC5)cc4)cccc3C2=O)C(=O)N1 (stereo in doubt) [Compound B, 3-(4-((4-(morpholinomethyl)benzyl)oxy)-1-oxoisoindolin-2-yl)piperidine-2,6-dione]
- degradation of Ikaros (in words) (Ikaros; [1]): significant degradation
- degradation of Ikaros (Ikaros; [2]): 0%
- degradation of Ikaros (Ikaros; [3]): 8%
- degradation of Ikaros (Ikaros; [4]): 45%
- degradation of Ikaros (Ikaros; [5]): 49%
- degradation of Ikaros (Ikaros; [6]): 60%
- degradation of Ikaros (Ikaros; HET splenocytes, 10 μM, 24 hr ex vivo): 68%
- degradation of Ikaros (Ikaros; [7]): 14%
- degradation of Ikaros (Ikaros; [8]): 41%
- degradation of Ikaros (Ikaros; [9]): 55%
- degradation of Ikaros (Ikaros; [10]): 59%
- degradation of Ikaros (Ikaros; [11]): 76%
- degradation of Ikaros (Ikaros; HOM splenocytes, 10 μM, 24 hr ex vivo): 82%
- degradation of Ikaros (in words) (Ikaros; [12]): only minimal degradation
- degradation of Ikaros (Ikaros; [13]): 23%
- degradation of Ikaros (Ikaros; [14]): 20%
- degradation of Ikaros (in words) (Ikaros; [15]): no degradation
- degradation of Aiolos (Aiolos; HET (heterozygous human CRBN knock-in) splenocytes, 10 μM, 24 hr ex vivo): 77%
- degradation of Aiolos (in words) (Aiolos; [1]): significant degradation
- degradation of Aiolos (Aiolos; [2]): 0%
- degradation of Aiolos (Aiolos; [3]): 13%
- degradation of Aiolos (Aiolos; [4]): 32%
- degradation of Aiolos (Aiolos; [5]): 41%
- degradation of Aiolos (Aiolos; [6]): 76%
- degradation of Aiolos (Aiolos; HOM (homozygous human CRBN knock-in) splenocytes, 10 μM, 24 hr ex vivo): 84%
- degradation of Aiolos (Aiolos; [7]): 28%
- degradation of Aiolos (Aiolos; [8]): 54%
- degradation of Aiolos (Aiolos; [9]): 66%
- degradation of Aiolos (Aiolos; [10]): 78%
- degradation of Aiolos (Aiolos; [11]): 81%
- degradation of Aiolos (in words) (Aiolos; [12]): only minimal degradation
- degradation of Aiolos (Aiolos; [13]): 28%
- degradation of Aiolos (Aiolos; [14]): 27%
- degradation of Aiolos (in words) (Aiolos; [15]): no degradation

Structure (SMILES): Cc1ccc(NC(=O)NCc2ccc3c(c2)CN(C2CCC(=O)NC2=O)C3=O)cc1Cl (stereo not drawn) [Compound C, 1-(3-chloro-4-methylphenyl)-3-((2-(2,6-dioxopiperidin-3-yl)-1-oxoisoindolin-5-yl)methyl)urea]
- degradation of GSPT1 (GSPT1; HOM splenocytes, 1 nM): 65%
- degradation of GSPT1 (GSPT1; HOM splenocytes, 100 nM): 89%
- degradation of GSPT1 (in words) (GSPT1; HOM splenocytes): significant degradation
- degradation of GSPT1 (GSPT1; WT splenocytes, 1 nM): 11%
- degradation of GSPT1 (GSPT1; WT splenocytes, 100 nM): 7%
- degradation of GSPT1 (in words) (GSPT1; WT splenocytes): only minimal degradation
